Measured values from patent EP0189596A1, “Benzofuran and benzothiophene derivatives” (SHIONOGI & CO., LTD., priority 1984, dated 1986).

Columns and labels:
[1] = Bioassay for Diuretic Effect on Mice; type: in vivo, Slc:ddy mice; details: Mouse, oral, Dose (mg) 30, urine collected for 4 hours, percentage to control (100%)
Description: (§1) I . Test Method: • Experiments with rats and mice were carried out according to Assay Programs #27-104 and #27-106, respectively. The outline is as follows.
Slc:ddy 5-week-old mice (female, about 20g body-weight each) were used for the test. From the morning of the day before the test day, the mice were fasted but water. In the morning of the test day, a sample which was prepared by suspending or dissolving a test compound in 2% gum arabic was orally administered to each at 30 ml/kg. On the other hand, mere by 2% gum arabic was orally administered to the control group at 30 ml/kg. Immediately after the administration, 5 mice employed were put in a plastic cage for the metabolic tests and their urine samples were collected for 4 hours. The cumulative urine volume, urinary sodium (Na^+), and urinary potassium (K^+) were quantitatively determined. II. Test Results
(§2) Results regarding the urine volume are shown by percentages to control (100%). Also, results regarding the urinary sodium (Na^+) and the urinary potassium (K^+) are shown by percentages to control (100%).

[2] = Bioassay for Diuretic Effect on Rats; type: in vivo, SLc:SD rats; details: Rat, oral, percentage to control (100%)
Description: as §1
SLc:SD 8-week-old rats (male, about 250g body-weight each) were used for the test. A few lumps of sugar in place of ordinary diets were given on the morning of the day before the test day and 5% glucose solution was given orally at a rate of 20 ml/kg in the evening (approximately at 4 p.m.) of the […]. In the morning for the test, a sample which was prepared by suspending or dissolving a test compound in 2X gum arabic was orally administered to each at a dose of 20 ml/kg. On the other hand, mere by 2% gum arabic was orally administered to the control group at 20 ml/kg. Immediately after the administration, the test animals were put in a plastic cage for the metabolic tests and their urine samples were collected for 5 hours. The cumulative urine volume, urinary sodium (Na^+), and urinary potassium (K^+) were quantitatively determined.
as §2

[3] = Dose (mg) 50, urine collected for 5 hours
[4] = Dose (mg) 10, urine collected for 5 hours

Row | Compound | Urinary K^+ (%) [1] | Urinary Na^+ (%) [1] | Urine Vol. (%) [1] | Urinary K^+ (%) [2, 3] | Urinary Na^+ (%) [2, 3] | Urine Vol. (%) [2, 3] | Urinary K^+ (%) [2, 4] | Urinary Na^+ (%) [2, 4] | Urine Vol. (%) [2, 4]
1 | CC(C(=O)c1cc2c(c(Cl)c1Cl)OC(C(=O)O)C2)=C1SCCS1 (stereo not drawn) [Example 3] | 304※ % | 1370※ % | 270※ % | 217※ % | 291※ % | 153※ % |  |  | 
2 | CSC(SC)=C(C)C(=O)c1cc2c(c(C)c1Cl)OC(C(=O)O)C2 (stereo not drawn) [Example 14] | 330※ % | 743※ % | 296※ % |  |  |  |  |  | 
3 | CSC(=CC(=O)c1cc2c(c(Cl)c1Cl)OC(C(=O)OCC(=O)O)C2)SC (stereo not drawn) [Example 17, 6.7-Dichloro-5-[3,3-bis(metbylthic)-2-propenoyl]-2,3-dibydro-1-benzofuran-2-carboxyacetic acid] | 277※ % | 970※ % | 216※ % | 285※ % | 478※ % | 144※ % |  |  | 
4 | CC(C(=O)c1cc2c(c(Cl)c1Cl)OC(C(=O)O)C2)=C1OCCS1 (stereo not drawn) [Example 21] | 273※ % | 704※ % | 155※ % | 178※ % | 179※ % | 104% |  |  | 
5 | CSC(=CC(=O)c1cc2c(c(Cl)c1Cl)OC(C=O)C2)SC (stereo not drawn) [Example 28] | 260^※ % | 905^※ % | 222^※ % |  |  |  |  |  | 
6 | CNC(=S)CC(=O)c1cc2c(c(Cl)c1Cl)OC(C(=O)O)C2 (stereo not drawn) [Example 67, 6,7-dichloro-5-[[N-methyl(thiocarbamoyl)]-acbtyl]-2,3-dihydrobenzofuran-2-carbaxylic acid] | 232^※ % | 610^※ % | 192^※ % | 306^※ % | 377^※ % | 148^※ % |  |  | 
7 | O=C(C=C1NC=CS1)c1cc2c(c(Cl)c1Cl)OC(C(=O)O)C2 (stereo not drawn) [Example 70, 6,7-dichloro-5-((4-thiazolin-2-ylidene)acetyl]-2,3-dihydro-benzofuran-2-carboxylic acid] | 178^※ % | 410^※ % | 144^※ % | 374^※ % | 459^※ % | 154^※ % |  |  | 
8 | C=C1CNC(=CC(=O)c2cc3c(c(Cl)c2Cl)OC(C(=O)O)C3)S1 (stereo not drawn) [Example 80] | 344^※ % | 738^※ % | 264^※ % |  |  |  | 161^※ % | 211^※ % | 101%
9 | CSc1[nH]ccc1C(=O)c1cc2c(c(Cl)c1Cl)OC(C(=O)O)C2 (stereo not drawn) [Example 98, 6,7-dichloro-5-[2-(methylthio)pyrrol-3-yl-carbonyl]-2,3-dihydrobenzofuran-2-carboxylic acid] | 292^※ % | 810^※ % | 222^※ % |  |  |  | 254^※ % | 445^※ % | 157^※ %
